What follows are compounds tested against T1, Membrane-bound ghrelin O-acyltransferase MBOAT4 (Homo sapiens, UniProt Q96T53) (assay: Inhibition of human GOAT octanoylation activity expressed in insect Sf9 cell membranes using GSSFLCAcDan as substrate after 1 hr by reverse phase HPLC with fluorescence detection method).
T1 sequence (Q96T53 whole entry): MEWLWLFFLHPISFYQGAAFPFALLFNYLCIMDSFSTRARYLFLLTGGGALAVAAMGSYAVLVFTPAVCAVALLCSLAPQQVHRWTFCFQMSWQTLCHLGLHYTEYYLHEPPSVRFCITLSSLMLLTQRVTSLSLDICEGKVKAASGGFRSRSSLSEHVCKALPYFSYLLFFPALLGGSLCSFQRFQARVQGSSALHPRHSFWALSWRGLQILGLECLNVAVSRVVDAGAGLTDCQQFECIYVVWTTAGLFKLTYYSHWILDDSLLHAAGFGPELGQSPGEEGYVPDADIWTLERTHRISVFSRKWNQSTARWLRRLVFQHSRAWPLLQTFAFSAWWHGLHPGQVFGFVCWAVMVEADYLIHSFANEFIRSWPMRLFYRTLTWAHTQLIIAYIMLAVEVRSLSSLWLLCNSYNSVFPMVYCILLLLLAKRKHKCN
With CC(C)C[C@H](NC(=O)[C@H](Cc1ccccc1)NC(=O)[C@H](Cn1cc(CCCc2ccccc2)nn1)NC(=O)[C@H](CO)NC(=O)CN)C(N)=O the IC50 was 0.7 µM. CC(C)C[C@H](NC(=O)[C@H](Cc1ccccc1)NC(=O)[C@H](Cn1cc(Cc2ccccc2)nn1)NC(=O)[C@H](CO)NC(=O)CN)C(N)=O showed an IC50 of 6 µM. For CC(C)C[C@H](NC(=O)[C@H](Cc1ccccc1)NC(=O)[C@H](Cn1cc(CCc2ccccc2)nn1)NC(=O)[C@H](CO)NC(=O)CN)C(N)=O, the IC50 was 3.8 µM. For CC(C)C[C@H](NC(=O)[C@H](Cc1ccccc1)NC(=O)[C@H](Cn1cc(CCCCc2ccccc2)nn1)NC(=O)[C@H](CO)NC(=O)CN)C(N)=O, the IC50 was over 1 µM.
